Where two headings read alike, the source gives them in different places.
Tests used:
[1] = system: Hep3B, HT29, K562, LNCaP, and MCF7; experiment: MTT cell viability of human tumor cell lines; assay type: cell-based; details: 72 h, every cell line tested (Hep3B, HT29, K562, LNCaP, MCF7), 3 days
Procedure: Human tumor cell lines were obtained from ATCC (Mannassas, Va.). The human hepatocellular carcinoma cell line, Hep3B, was maintained in Eagle's MEM supplemented with 10% FBS; the human breast cancer cell line, MCF7, was grown in DMEM containing 10% FBS; the human colorectal carcinoma cell line, HT29, was cultured in McCoy's 5a medium with 10% FBS; the human prostate carcinoma cell line, LNCaP, was maintained in RPMI 1640 with 10% FBS and human erythroleukemia cell line, K562, was propagated in Iscove's modified Dulbecco's medium (IMDM) containing 10% FBS. All of the cultures contained the antibiotics penicillin and streptomycin. The C3 cell line was generated by transfection of the EJras-transformed C57B16 (B6) mouse embryo cells with fall length HPV16. C3 cells were grown and maintained in IMDM supplemented with 5% FBS plus penicillin and streptomycin.
For cell culture experiments, Maltose-M3N was dissolved in water to a concentration of 10 mM and then sterilized by filtration. Cells were seeded at approximately 2×10^3 cells per cm^2 in complete media. Twenty-four hours after seeding, the growth media was removed and replaced with media containing the desired concentrations of Maltose-M3N.
Twenty thousand cells were seeded into each well of 24-well plates. […] The solubilized dye was transferred to 96-well plates and read at the wavelength of 540 nm using an ELISA reader.

Hep3B cells = experiment: DAPI staining of nuclei for apoptotic bodies; assay type: cell-based, human; details: 60 μM, 72 hr
Procedure: FIG. 9. (A) Effect of Maltose-M3N on the proliferation of human tumor cell lines. HT29, LNCaP, Hep3B, K562, and MCF7 were treated with different concentrations of Maltose-M3N for 72 hours. Percent cell viability was measured by MTT assay and expressed as mean±SD of triplicate data points. (B) Untreated Hep3B cells or treated with 60 μM Maltose-M3N for 72 hr were stained with DAPI. Arrows indicate apoptotic bodies.
The growth inhibitory effect of Maltose-M3N was evaluated in five human cancer cell lines, including Hep3B, HT29, K562, LNCaP, and MCF7.

C3 tumors = experiment: intratumoral treatment of C3 cell-induced tumors in mice; assay type: in vivo; details: daily intratumoral injections for 4 days
Procedure: Four C57b1/6 mice were inoculated with 5×10^5 C3 cells subcutaneously between the shoulders. Tumors were allowed to develop for approximately 20 days. The mice then received daily intratumoral injections of 0.1 ml of 0.15 M NaCl, 10 mg, 20 mg or 40 mg of Maltose-M3N dissolved in 0.15 M NaCl. After 4 days of treatment, the mice were euthanized and the tumors were excised, immediately fixed and then stored in 4% formaldehyde in PBS. Tissue samples were then sent to Paragon Bioservices (Baltimore, Md.) for histology and immunohistochemistry using antibodies against Cdc2 and survivin.

[2] = system: NCI/ADR-RES multidrug resistant breast cancer xenografts; experiment: combination therapy against NCI/ADR-RES xenografts in nude mice; details: two weeks
Procedure: Nude mice bearing NCI/ADR-RES multidrug resistant breast cancer xenografts were used as a model for combination therapy to further examine synergy between M4N and paclitaxel.
T-cell deficient female nude (nu/nu) mice, 5-6 weeks of age, were purchased from Charles River Laboratories (Wilmington, Mass.) and were housed in a pathogen-free room. All experiments involving the mice were carried out in accordance with the Johns Hopkins University Animal Care and Use Committee guideline. The mice were implanted subcutaneously in both flanks with 1×10^6 NCI/ADR-RES cells suspended in Hank's balanced salt solution (HBSS). […] For intraperitoneal (i.p.) administration, M4N, maltose-M3N and paclitaxel were dissolved in a recently developed reduced cremophor solution containing 20% (v) dehydrated ethanol, 20% (v) Cremophor EL, PEG 300, <11% (v) Tween 80 (22). Daily injections of 0.05 ml were performed for each drug and drug combination.
Tumors were measured in two perpendicular dimensions once every seven days, and the tumor volumes were calculated according to the following formula: […]
where a is the width of the tumor (smaller diameter) and b is the length (larger diameter) (23). The mean tumor volume and standard error were calculated for each treatment group. Relative mean tumor volumes, (V/V0), where V is the mean tumor volume at a particular time and V0 is the mean tumor volume at day 0 (23), were determined and used to assess tumor growth inhibition (T/C value) using the following equation:
T/C(%)=Relative Mean Tumor Volume of treated/Relative Mean Volume of control×100.
The NCI standard for the minimal level for antitumor activity (T/C≦42%) was adopted (25). At the termination of the experiment the tumors were excised and fixed in formaldehyde. Tissue samples were then sent to Paragon Bioservices for histology and immunohistochemistry using antibodies against human P-glycoprotein (Pgp).
Two dosage regimens of M4N and paclitaxel, both with a constant molar ratio of 20:1 (M4N:paclitaxel), were employed as determined by in vitro testing to be synergistic as shown in Table 1. The 8 and 16 μmol m^2 doses of pactitaxel were submaximal based on values from other studies (22) and the M4N doses of 160 and 320 μmol/m^2 were arrived at by decreasing the maximum tolerated dose used in our previous study with MCF-7 breast cancer xenografts (5). An additional NDGA derivative was also tested. Maltose-M3N was developed as a water soluble alternative to M4N, however for consistency it was dissolved in the same reduced cremophor solvent system as M4N and paclitaxel for this study.

solubility in water = assay type: physicochemical
NCI/ADR-RES cells = experiment: SRB cytotoxicity assay with median-effect / combination index analysis; assay type: cell-based, human; details: for IC50: Homo sapiens
Procedure: The multidrug resistant cell line, NCI/ADR-RES, was obtained from the DTP Human Tumor Cell Line Screen (Developmental Therapeutics Program, NCI). Both cell lines were maintained in Dulbecco's modified Eagle's medium supplemented with 10% fetal bovine serum and the antibiotics penicillin and streptomycin. […] Stocks of M4N and paclitaxel (Sigma-Aldrich, St. Louis, Mo.) were prepared in dimethyl sulfoxide (DMSO) and added to the cell culture medium so that the final concentration of DMSO was one percent. Aqueous stocks of Dox (Sigma-Aldrich) were prepared and filter sterilized before dilution into growth medium.
NCI/ADR-RES cells were seeded at a density of 2×10^4 cells per well in 24 well plates and 24 h later the growth medium was supplemented with M4N, Dox, paclitaxel or combinations of M4N with Dox or M4N with paclitaxel. MAN was used at concentrations between 1.5 and 48 μM. For the combination of MAN and Dox a constant molar ratio of 2.4:1 (M4N:Dox) was used and for M4N and paclitaxel the ratio was 20:1 (M4N:paclitaxel). Three days after drug addition cytoxicity was assessed with the SRB assay (14) with 540 and 690 nm (reference) absorbance measured with a Power Wave 200 microplate reader (Bio-Tek Instruments, Winooski, Vt.).
The combination index (CD isobologram method of Chou and Talalay (16, 17, 18, 19) which is based on the median effect principle, was used to calculate synergism or antagonism for the combined drug effects. Dose-effect curves for each drug, singly and in combination, in serially-diluted concentrations were plotted using the median-effect equation and plot (18, 20) and the CI equation and plot (19). CI values at different effect and dose levels and isobolograms were generated automatically using the computer software CompuSyn (20). With this method, additive, synergistic or antagonistic effects are indicated by CI values of 1, <1, and >1, respectively. Comparison of the ratio of doses required to reach a given effect level for each single drug and the drugs in combination was used to determine the dose-reduction index (DRI).

MCF-7 = details: MCF-7, drug sensitive human breast cancer cell line; read-out: reported IC50; cited from earlier work
MDR-1 gene = details: cited from earlier work
[3] = higher regimen: M4N or Mal-M3N 320, Px 16 μmoles/m^2, i.p. daily
[4] = 72 h, NCI/ADR-RES, three days, combinations at molar ratio 2.4:1 (M4N:Dox) or 20:1 (M4N:paclitaxel), given as M4N + second drug, read-out: Dm, median effect dose (concentration that inhibits cell growth by 50%)
[5] = single agent, NCI/ADR-RES, read-out: IC50
[6] = M4N/paclitaxel combination 20:1, NCI/ADR-RES
[7] = M4N/paclitaxel combination, NCI/ADR-RES
[8] = lower regimen: M4N 160, Px 8 μmoles/m^2, i.p. daily
[9] = M4N/Dox combination 2.4:1, NCI/ADR-RES
[10] = M4N/Dox combination, NCI/ADR-RES

SMILES: COc1ccc(C[C@H](C)[C@H](C)Cc2ccc(OC)c(OC3OC(CO)C(OC4OC(CO)C(O)C(O)C4O)C(O)C3O)c2)cc1OC (stereo partly shown) [Maltose-M3N]
- IC50 [1]: 20 to 40 µM
- mode of cell death (DAPI staining) (Hep3B cells): cell death occurred via apoptosis
- Cdc2 protein expression in tumors (C3 tumors): reduced expression levels
- apoptosis and necrosis by H&E staining (C3 tumors): elevated levels of apoptosis and necrosis
- survivin protein expression in tumors (C3 tumors): reduced expression levels
- Relative Mean Tumor Volume [2, 3]: 1.25
- T/C % [2, 3]: 47.7%
- solubility in aqueous solution (solubility in water): water soluble

SMILES: CC(=O)O[C@H]1C(=O)[C@@]2(C)[C@H]([C@H](OC(=O)c3ccccc3)[C@]3(O)C[C@H](OC(=O)[C@H](O)[C@@H](NC(=O)c4ccccc4)c4ccccc4)C(C)=C1C3(C)C)[C@]1(OC(C)=O)CO[C@@H]1C[C@@H]2O [paclitaxel]
- IC50 (NCI/ADR-RES cells; [4]): 3.26 µM
- IC50 (NCI/ADR-RES cells; [5]): 3.26 µM
- DRI value at ED75 (NCI/ADR-RES cells; [6]): 54.32
- DRI value at ED90 (NCI/ADR-RES cells; [6]): 150.31
- DRI value at ED95 (NCI/ADR-RES cells; [6]): 300.34
- decrease of ED50 by concurrent M4N (DRI) (NCI/ADR-RES cells; [7]): 19.63 fold
- decrease of ED95 by concurrent M4N (DRI) (NCI/ADR-RES cells; [7]): 300.3 fold
- Deaths [2, 3]: 0/7
- Relative Mean Tumor Volume [2, 3]: 1.59
- T/C % [2, 3]: 60.7%
- Deaths [2, 8]: 0/7
- Mean Body Weight Change [2, 8]: +0.3 g/mouse
- Relative Mean Tumor Volume [2, 8]: 0.90
- T/C % [2, 8]: 34.4%
- IC50 (MCF-7): 0.0064 µM

SMILES: COc1cc2c(cc1O)CCN[C@]21CS[C@@H]2c3c(OC(C)=O)c(C)c4c(c3[C@H](COC1=O)N1[C@@H]2[C@H]2c3c(cc(C)c(OC)c3O)C[C@@H]([C@@H]1O)N2C)OCO4 [ET-743]
- MDR-1 gene activation (MDR-1 gene): able to inhibit MDR-1 gene activation

SMILES: COc1cccc2c1C(=O)c1c(O)c3c(c(O)c1C2=O)C[C@@](O)(C(=O)CO)C[C@@H]3O[C@H]1C[C@H](N)[C@H](O)[C@H](C)O1 [Dox, doxorubicin]
- concentration necessary to inhibit the growth of 75% of cells (ED75) (NCI/ADR-RES cells; Dox alone, NCI/ADR-RES): 30.5 µM
- concentration necessary to inhibit the growth of 75% of cells (ED75) (NCI/ADR-RES cells; Dox with concurrent 11.3 μM M4N, NCI/ADR-RES): 4.7 µM
- IC50 (NCI/ADR-RES cells; [4]): 3.22 µM
- IC50 (NCI/ADR-RES cells; [5]): 3.22 µM
- DRI value at ED75 (NCI/ADR-RES cells; [9]): 6.47
- DRI value at ED90 (NCI/ADR-RES cells; [9]): 30.50
- DRI value at ED95 (NCI/ADR-RES cells; [9]): 87.56
- decrease of ED75 by concurrent M4N (DRI) (NCI/ADR-RES cells; [10]): 6.47 fold
- reduction of ED95 by concurrent M4N (DRI) (NCI/ADR-RES cells; [10]): 87.6 fold
- IC50 (MCF-7): 0.13 µM
